# In article PMC6934184, “Selective DNA-PKcs inhibition extends the therapeutic index of localized radiotherapy and chemotherapy” (The Journal of Clinical Investigation, 2019):
# Biological target: T1, TESK2 (Homo sapiens, UniProt Q96S53)
# T1 construct: purchased Thermo Fisher Scientific (Life Technologies) SelectScreen
# Assay: SelectScreen LanthaScreen
# Type: binding
# Conditions: read-out: % displacement
# Outline: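 SelectScreen broad panel; activity (Z'LYTE, Adapta) plus binding formats. ATP: Km app for CSF1R Z'LYTE; 10 for CAMK1 Adapta. Readout = % per kinase.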
# T1 sequence (Q96S53 whole entry): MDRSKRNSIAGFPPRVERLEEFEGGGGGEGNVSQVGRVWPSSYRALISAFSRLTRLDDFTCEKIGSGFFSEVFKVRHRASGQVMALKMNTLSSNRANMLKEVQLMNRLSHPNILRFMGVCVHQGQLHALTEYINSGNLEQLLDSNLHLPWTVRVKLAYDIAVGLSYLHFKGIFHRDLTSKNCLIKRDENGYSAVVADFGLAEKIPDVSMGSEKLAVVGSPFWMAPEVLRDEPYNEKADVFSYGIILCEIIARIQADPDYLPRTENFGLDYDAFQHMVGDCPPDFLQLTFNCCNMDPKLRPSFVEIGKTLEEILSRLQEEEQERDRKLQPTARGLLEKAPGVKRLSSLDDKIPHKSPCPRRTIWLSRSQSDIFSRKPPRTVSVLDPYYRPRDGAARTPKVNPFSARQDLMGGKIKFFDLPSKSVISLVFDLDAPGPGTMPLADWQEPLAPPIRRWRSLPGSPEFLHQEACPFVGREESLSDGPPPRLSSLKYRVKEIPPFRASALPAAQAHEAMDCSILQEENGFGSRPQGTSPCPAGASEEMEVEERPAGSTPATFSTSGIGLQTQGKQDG
smiles,measurement,value
CN(C(=O)CN1CCOCC1)c1ccc2sc3c(-c4cccc5c(=O)cc(N6CC7CCC(C6)O7)oc45)cccc3c2c1 [NU5455],inhibition at 1 µM,2.7%
